Experimental data from patent publication US4717716A, “Immuno-regulator” (Nihon University, priority 1985, dated 1988).
“And” between values parts separate entries of the source, which are not always exact repeats. Equal entries are not always repeated.

Columns and labels:
[1] = formulated by LISA corporation in Spain since 10 years; cited from earlier work
DDY male mouse = experiment: Acute toxicity of L-carnosine in mice; format: in vivo
Method: L-carnosine was administered peritoneally or orally in different amounts to a group of 10 mice and acute toxic symptoms were observed 5 hours after administration. […] L-carnosine was dissolved in a physiological saline so as to give a dose of 0.1 to 0.3 ml/10 g.

[2] = tested on: plaque-forming cells of DDY mouse immunized with sheep red blood cells (SRBC); experiment: PFC method (hemolytic plaque-forming cells) in mice immunized with SRBC; format: in vivo; conditions: for PFC Number per g. Spleen: 4 days after immunization; for PFC reaction: mouse of 5 weeks age, 2.5×10^8 SRBC
[3] = tested on: anti-SRBC antibody in serum of mice immunized with SRBC; experiment: Determination of serum antibody value (hemagglutination titer, HA-titer); format: in vivo, mouse; conditions: for Anti-SRBC Antibody Value N: maximal positive dilution 2^N
Method: Blood was collected in the PFC reaction from carotid arteries of a group of five mice, from which was separated a serum in a conventional manner for determination of hemagglutination titer (HA-titer). The test serum was diluted with a phosphate buffered saline (PBS) containing 0.5-1% of a serum from a normal rabbit, and was evaluated using SRBC. The maximal dilution showing positive reaction was represented by 2^N, wherein N represents an antibody value.

[4] = Physicochemical properties of L-carnosine
[5] = tested on: male DDY mouse sensitized with picryl chloride; experiment: Delayed hypersensitivity reaction (picryl chloride contact dermatitis); format: in vivo; conditions: for Increase of Ear control %: 0 mg/kg/day = 100; for Thickness × 10^-3cm Increase of Ear: 1% picryl chloride, average of 8 mice ± S.D.
Text: A male DDY mouse of 5 weeks are weighing about 20 g was used to detect its contact dermatitis by means of 2, 4, 6-trinitro-chlorobenzene (picryl chloride) (available from Tokyo Chemical Industry Co., Ltd). An ethanol solution of 1% picryl chloride was impregnated into 4-layered gauge (1×1 cm), which was then contacted with a shaved abdomen of the mouse for 10 seconds to cause primary sensitization. The secondary sensitization for test was caused on seventh day by applying an olive oil solution of 1% picryl chloride on both surfaces of one ear by means of a paint brush. The other ear had applied only olive oil as a control. After 24 hours, the mouse was anesthetized with ether, and thickness of the ear was determined in the order of 1/100 mm by a micrometer having precision of 1/100 mm. The delayed hypersensitivity reaction was calculated as follows: […]
(Thickness of Ear Applied with Picryl Chloride after 24 Hours--Thickness of Ear before Application) minus (Thickness of Ear Applied with Olive Oil After 24 Hours--Thickness of Ear before Application).
L-carnosine was administered subcutaneously in the indicated amount for 14 days. On the 7th day, sensitization was conducted by 1% picryl chloride, and examination was carried out on 7 days later. Values are shown in an average of 8 mices ±S.D.

[6] = SRBC antigen amount 2.5 × 10^9, 100 mg/Kg/day S.C. for six days
[7] = SRBC antigen amount 5 × 10^7, 100 mg/Kg/day S.C. for six days
[8] = mice of 2 weeks age, 100 mg/Kg/day S.C., 2.5 × 10^8 SRBC
[9] = mice of 5 weeks age, 100 mg/Kg/day S.C., 2.5 × 10^8 SRBC
[10] = mice of 30 weeks age, 100 mg/Kg/day S.C., 2.5 × 10^8 SRBC
[11] = 50 mg/kg/day subcutaneously for 14 days
[12] = 250 mg/kg/day subcutaneously for 14 days
[13] = 500 mg/kg/day subcutaneously for 14 days

NCCC(=O)N[C@@H](Cc1cnc[nH]1)C(=O)O [L-carnosine, β-alanyl-L-histidine]
safety in use as anorexia treating agent [1]: confirmed to be safe | acute toxicity, overall (DDY male mouse; DDY male mouse): very low toxicity | effective amount as fraction of acute toxicity LD50 (DDY male mouse; mouse, in vivo): 1/181 | mice killed (DDY male mouse; mouse, in vivo): one of the 10 | toxic effect of oral administration (DDY male mouse; oral 15,000 mg/Kg, mice): little effect | LD50 (minimal lethal dose) (DDY male mouse; oral, DDY male mouse, value on 72 hours): > 14,930 mg/Kg | toxic symptoms (DDY male mouse; peritoneal 15,000 mg/Kg, from about 30 minutes, a half of the mice): depression of voluntary motility, abdominal position, depression and irregularity of respiration rate | LD 100 (DDY male mouse; peritoneal administration, mice): 15,000 mg/Kg | LD50 (95% confidence limit) (DDY male mouse; peritoneal, DDY male mouse, value on 72 hours): 9,087 (8,320-9,925) mg/Kg and 9,087 mg/Kg | PFC Number per Chamber ([2]; 25 mg/kg): 53.0 ± 6.1 | PFC Number per Spleen ([2]; 25 mg/kg): 10.7 × 10^4 | PFC Number per g. Spleen (%) ([2]; 25 mg/kg for 6 days, 2.5 × 10^8 SRBC, 0 mg/kg = 100): 133% | PFC Number per g. Spleen ([2]; 25 mg/kg for 6 days, 2.5 × 10^8 SRBC, mice): 7.6 × 10^5 | PFC Number per Chamber (%) ([2]; 25 mg/kg, 144 h): 88% | PFC Number per Spleen (%) ([2]; 25 mg/kg, 144 h): 123% | Weight of Spleen (%) ([2]; 25 mg/kg, 144 h): 92% | PFC Number per Chamber ([2]; 50 mg/kg): 73.6 ± 6.2 | PFC Number per Spleen ([2]; 50 mg/kg): 14.9 × 10^4 | PFC Number per g. Spleen (%) ([2]; 50 mg/kg for 6 days, 2.5 × 10^8 SRBC, 0 mg/kg = 100): 149% | PFC Number per g. Spleen ([2]; 50 mg/kg for 6 days, 2.5 × 10^8 SRBC, mice): 8.5 × 10^5 | PFC Number per Chamber (%) ([2]; 50 mg/kg, 144 h): 122% | PFC Number per Spleen (%) ([2]; 50 mg/kg, 144 h): 171% | Weight of Spleen (%) ([2]; 50 mg/kg, 144 h): 116% | effect on the PFC response ([2]; 100 mg/kg): No effect | PFC decreased ([2]; 100 mg/kg, 144 h): 30% | PFC increased ([2]; 100 mg/kg, 144 h): 30% | PFC Number per Chamber ([2]; 250 mg/kg): 69.8 ± 6.5 | PFC Number per Spleen ([2]; 250 mg/kg): 14.6 × 10^4 | PFC Number per g. Spleen (%) ([2]; 250 mg/kg for 6 days, 2.5 × 10^8 SRBC, 0 mg/kg = 100): 167% | PFC Number per g. Spleen ([2]; 250 mg/kg for 6 days, 2.5 × 10^8 SRBC, mice): 9.5 × 10^5 | PFC Number per Chamber (%) ([2]; 250 mg/kg, 144 h): 116% | PFC Number per Spleen (%) ([2]; 250 mg/kg, 144 h): 168% | Weight of Spleen (%) ([2]; 250 mg/kg, 144 h): 100% | PFC Number per Chamber ([2]; 500 mg/kg): 64.8 ± 4.9 | PFC Number per Spleen ([2]; 500 mg/kg): 8.3 × 10^4 | PFC Number per g. Spleen (%) ([2]; 500 mg/kg for 6 days, 2.5 × 10^8 SRBC, 0 mg/kg = 100): 107% | PFC Number per g. Spleen ([2]; 500 mg/kg for 6 days, 2.5 × 10^8 SRBC, mice): 6.1 × 10^5 | PFC Number per Chamber (%) ([2]; 500 mg/kg, 144 h): 107% | PFC Number per Spleen (%) ([2]; 500 mg/kg, 144 h): 95% | Weight of Spleen (%) ([2]; 500 mg/kg, 144 h): 89% | PFC Number per g. Spleen (%) ([2]; 2 weeks age, 100 mg/Kg/day S.C., 2.5 × 10^8 SRBC, normal = 100): 64% | PFC Number per g. Spleen (%) ([2]; 5 weeks age, 100 mg/Kg/day S.C., 2.5 × 10^8 SRBC, normal = 100): 110% | PFC Number per g. Spleen (%) ([2]; 30 weeks age, 100 mg/Kg/day S.C., 2.5 × 10^8 SRBC, normal = 100): 177% | PFC Number per g. Spleen (%) ([2]; SRBC 2.5 × 10^9, 100 mg/Kg/day S.C. six days, normal = 100): 71% | PFC Number per g. Spleen (%) ([2]; SRBC 5 × 10^7, 100 mg/Kg/day S.C. six days, normal = 100): 119% | PFC Number per g. Spleen (%) ([2]; SRBC 5 × 10^8, 100 mg/Kg/day S.C. six days, normal = 100): 53% | PFC Number per g. Spleen [2, 6]: 10.2 × 10^5 | PFC Number per g. Spleen [2, 7]: 5.0 × 10^5 | PFC Number per g. Spleen ([2]; SRBC antigen amount 5 × 10^8, 100 mg/Kg/day S.C. for six days): 8.2 × 10^5 | effect on the PFC response ([2]; immature mouse of 2 weeks age, 100 mg/Kg for 9 days): suppressed | PFC Number per g. Spleen [2, 8]: 4.8 × 10^5 | PFC Number per g. Spleen [2, 9]: 12.5 × 10^5 | PFC Number per g. Spleen [2, 10]: 11.7 × 10^5 | PFC reaction ([2]; 50 and 250 mg/Kg for 6 days): increased | PFC reaction ([2]; dose of more than 500 mg/Kg): subsided | effect on the PFC response ([2]; old mouse of 30 weeks age, 100 mg/Kg for 9 days): doubly strengthened | optimum dosage for the immuno-regulatory action ([2]; sc): 100 mg/kg/day | Weight of Spleen (%) ([2]; sc, 100 mg/kg/day, 336 h): 93% | PFC Number per Chamber (%) ([2]; sc, 100 mg/kg/day, 840 h): 107% | PFC Number per Spleen (%) ([2]; sc, 100 mg/kg/day, 840 h): 110% | Weight of Spleen (%) ([2]; sc, 100 mg/kg/day, 840 h): 100% | Weight of Spleen (%) ([2]; sc, 100 mg/kg/day, 5040 h): 121% | Anti-SRBC Antibody Value N ([3]; 25 mg/kg for 6 days, 2.5 × 10^8 SRBC): 9 | Anti-SRBC Antibody Value N ([3]; 50 mg/kg for 6 days, 2.5 × 10^8 SRBC): 10 | Anti-SRBC Antibody Value N ([3]; 250 mg/kg for 6 days, 2.5 × 10^8 SRBC): 9 | Anti-SRBC Antibody Value N ([3]; 500 mg/kg for 6 days, 2.5 × 10^8 SRBC): 8 | Anti-SRBC Antibody Value N [3, 6]: 8 | Anti-SRBC Antibody Value N [3, 7]: 4 | hemagglutination reaction ([3]; level of more than 500 mg/Kg): subsided | Anti-SRBC Antibody Value N [3, 8]: 6-7 | Anti-SRBC Antibody Value N [3, 9]: 9-10 | Anti-SRBC Antibody Value N [3, 10]: 9 | solubility in water [4]: readily soluble in water | Increase of Ear control % [5, 11]: 122.6% | Thickness × 10^-3cm Increase of Ear [5, 11]: 14.1 ± 3.6 × 10^-3cm | Increase of Ear control % [5, 12]: 136.5% | Thickness × 10^-3cm Increase of Ear [5, 12]: 15.7 ± 2.5 × 10^-3cm | Increase of Ear control % [5, 13]: 185.2% | Thickness × 10^-3cm Increase of Ear [5, 13]: 21.3 ± 8.7 × 10^-3cm | DHR with 1% picryl chloride ([5]; doses of 50, 250 and 500 mg/Kg): increasing trend of reaction
